Patent US8076457B2, “Crystal of a cytochrome-ligand complex and methods of use” (The Scripps Research Institute, priority 2005, dated 2011)

Tests used:
CYP2A6dH [1] = target: T1, CYP2A6dH (Homo sapiens, UniProt P11509, Q458E); assay: coumarin 7-hydroxylation by purified CYP2A6dH reconstituted with P450 reductase; assay type: biochemical
T1 construct: expressing residues 29-494 of the catalytic domain without internal modifications; 4xHis (C); made in house; host or cells: Escherichia coli
T1 sequence (P11509 with tags, fused parts or gaps Q458E): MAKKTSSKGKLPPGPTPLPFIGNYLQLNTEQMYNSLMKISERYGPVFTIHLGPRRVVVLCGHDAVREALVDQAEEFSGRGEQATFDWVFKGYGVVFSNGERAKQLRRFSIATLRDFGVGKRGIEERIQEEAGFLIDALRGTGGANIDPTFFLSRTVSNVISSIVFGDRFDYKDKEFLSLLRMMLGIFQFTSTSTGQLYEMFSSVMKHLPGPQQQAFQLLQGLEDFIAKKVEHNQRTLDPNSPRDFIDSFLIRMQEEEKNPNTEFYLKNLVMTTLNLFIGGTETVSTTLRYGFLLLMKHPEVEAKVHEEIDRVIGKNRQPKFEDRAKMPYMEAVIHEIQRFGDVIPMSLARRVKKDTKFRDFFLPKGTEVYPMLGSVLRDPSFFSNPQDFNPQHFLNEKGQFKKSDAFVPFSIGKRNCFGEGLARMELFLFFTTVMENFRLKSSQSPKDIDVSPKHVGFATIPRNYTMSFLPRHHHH
From the text: In this example, to determine catalytic properties for the purified protein, CYP2A6dH was reconstituted with E. coli-expressed purified human reductase in the absence of L-α-dilauroyl-L-α-lecithin with slight modifications to the protocol described by Tan et al. (Competitive interactions between CYP2A6 and cytochrome P450 2E1 for NADPH-cytochrome P450 oxidoreductase in the microsomal membranes produced by a baculovirus expression system. Arch. Biochem. Biophys. 342, 82-91 (1997)). 10 pmol CYP2A6dH was incubated on ice for 10 min. with 0.06 U human reductase at a ratio of 1:6, CYP2A6dH to reductase in a final volume of 10 μl. 1.2 benzopyrone at concentrations ranging from 25 μM to 2.5 mM were then added in […] aliquots, along with 430 μL of 50 mM Tris pH 7.4. The reaction mixture was allowed to equilibrate at 37° C. for 3 min. To start the reaction, 50 μl of an NADPH regeneration system (50 mM isocitrate, 50 mM MgCl2, 5 U/ml isocitrate dehydrogenase and 10 mM NADPH) was added. The reaction was allowed to proceed for 5 min., and stopped by addition of 100 μl of cold 20% trichloroacetic acid. The components were centrifuged at 13,000 rpm. 10 μl of the supernatant was removed and added to 190 μl 100 mM Tris buffer, pH 9.0. the coumarin content was quantified fluorometrically (excitation at 368 nm and emission at 453 nm).

CYP2A6dH [2] = target: T1, CYP2A6dH; assay: binding constants by visible difference spectroscopy (low spin to high spin conversion); settings: for spectral change on binding to the purified enzyme: spectral titration, UV-visible
Procedure: Purified CYP2A6dH was diluted to ˜3 μM in 50 mM KPi pH 7.4, 500 mM NaCl, 20% glycerol, 1 mM EDTA (referred to as XB) in a 1-cm path length microcuvette. […] The total concentration of methanol remained under 1%. Binding was monitored as the absorbance difference, ΔA, between the peak (˜385 nm) and trough (˜417 nm) of the difference spectrum. The apparent binding constant, Ks, and the extrapolated maximum spectral change, ΔAmax, were estimated from nonlinear least-squares regression fitting using the following equation:
[formula] where S is the total concentration of ligand and P is the total concentration of P450.

[3] = target: T2, full length wild-type CYP2A6 (Homo sapiens, UniProt P11509); settings: microsomal preparations from a panel of 12 human liver microsomes, cited from earlier work
T2 construct: for full length wild-type CYP2A6 in microsomal preparations; host or cells: human liver microsomes (panel of 12)
T2 sequence (P11509 1-494): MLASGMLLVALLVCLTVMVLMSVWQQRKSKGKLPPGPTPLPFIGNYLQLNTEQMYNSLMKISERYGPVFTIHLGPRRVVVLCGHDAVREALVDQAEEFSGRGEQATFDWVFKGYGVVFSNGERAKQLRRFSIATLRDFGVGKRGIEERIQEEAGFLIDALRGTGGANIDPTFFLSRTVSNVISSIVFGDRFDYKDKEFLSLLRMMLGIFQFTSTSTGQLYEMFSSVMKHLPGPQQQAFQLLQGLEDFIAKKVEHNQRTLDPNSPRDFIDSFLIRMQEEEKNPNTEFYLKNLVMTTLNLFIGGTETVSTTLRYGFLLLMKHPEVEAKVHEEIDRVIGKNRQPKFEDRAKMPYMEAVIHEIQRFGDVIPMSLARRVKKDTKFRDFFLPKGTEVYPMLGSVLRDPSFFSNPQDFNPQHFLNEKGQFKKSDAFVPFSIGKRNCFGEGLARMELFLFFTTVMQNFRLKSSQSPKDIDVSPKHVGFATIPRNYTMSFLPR

Compound	Km (CYP2A6dH [1]) [µM]	Vmax for coumarin 7-hydroxylation (CYP2A6dH [1]) [nmols/min/nmol P450]	spectral change on binding to the purified enzyme (CYP2A6dH [2])	Kd (CYP2A6dH [2]; substrate dependent conversion to high spin ferric heme protein, read-out: Dissociation constant for binding to purified CYP2A6dH) [nM]	Vmax of coumarin hydroxylation (mean value) [3] [nmols/min/nmol P450]	Km ([3]; read-out: Km of coumarin hydroxylation (mean value)) [µM]
O=c1ccc2ccccc2o1 [coumarin, 1,2-benzopyrone]	0.23 ± 0.03	10.83±1.38	type I spectral change	270	6.34	0.4
COc1c2occc2cc2ccc(=O)oc12 [methoxsalen, 8-methoxypsoralen]			type I spectral change			
